The text below walks through data of patent EP3061351B1, “Food product for young subjects” (Dopharma Research B.V., priority 2015, dated 2016).

Data set [1] has as its system IPEC-J2 cells. The experiment in a line: MTT assay, cytotoxicity of DON. Type of data set: cell-based, porcine. The settings on record: 4.2 µM DON, confirmation of the literature, data not shown. On the procedure:
Intestinal porcine epithelial cells (IPEC-J2 passages 83 - 87) were a kind gift from prof. R. Pieters (IRAS, Utrecht University, The Netherlands). IPEC-J2 cells were cultured in 25 cm^2 cell culture flasks (Greiner Bio-One, Alphen a/d Rijn, The Netherlands) in Dulbecco's modified Eagle's medium (DMEM)/ Ham's F12 supplemented with 10% fetal bovine serum, penicillin (100 U/mL) and streptomycin (100 µg/mL) (Gibco, Life Technologies Europe, Bleiswijk, The Netherlands). IPEC-J2 cells were used for MTT analysis.
To confirm lack of cytotoxicity at 4.2 µM of DON as published previously by Akbari et al. (The FASEB Journal […]; 28, 2414-2429), an MTT assay using IPEC-J2 cells was performed in a 96-well plate. The MTT assay assesses cell viability by analyzing the capability of cells to reduce the tetrazolium dye MTT (3-(4,5-dimethylthiazol-2-yl)-2.5-diphenyltetrazolium bromide, Sigma Aldrich, Zwijndrecht, The Netherlands) into the purple colored formazan. Using colorimetric analysis, the cell viability is quantified. For the MTT assay, a 5 mg/ml MTT-stock was prepared in PBS and this was diluted six times in 10% FBS in medium. Supernatant was aspirated and cells were incubated with 100 µl of the MTT solution. This was incubated for 3 hours in the incubator. […] Plate was shaken at low intensity for ten minutes and absorption at 560 nm was measured using spectrophotometer (Fluostar Omega, BMG Labtech).
A general note: Tetrazolium assays rely on reduction of a dye to a coloured formazan, in cell work by metabolically active cells.

Data set [2] concerns Caco-2 cells. The experiment in a line: TEER measurements of Caco-2 monolayer challenged with DON. To be noted: 4.2 µM DON, 24 hours. It is filed as cell-based. How it is done: (§1) Caco-2 cells were cultured in minimal essential media (MEM), supplemented with 10% FBS, 1% non essential amino acids (NEAA), 1% pyruvate, penicillin (100 U/mL) and streptomycin (100 µg/mL), all from Gibco (Life Technologies Europe, Bleiswijk, The Netherlands). Experiments with Caco-2 cells were conducted with cells grown on sterile 0.3 cm2 transwell with 0.4 µm pore polyester membrane inserts placed in a 24-well plate (Corning, Sigma-Aldrich, The Netherlands), if not stated otherwise. The cells were seeded at a density of 1 * 10^5 cells per insert. The cell culture plates were incubated at 37°C, in a humidified atmosphere with 5% CO2. […] The cell culture was regularly tested and found to be free of mycoplasma contamination.
Caco-2 cells were cultured as described above. The integrity of the monolayer was evaluated on a regular basis using the first two 24-well plates during 21 days. To avoid contamination, in the next well plates, TEER was only measured right before the start of the experiment. On average, TEER values for untreated cells were 550 ± 24 Ω˙cm2. […]
Caco-2 and IPEC-J2 cells were grown on inserts and in 12 well plates respectively. […] TEER was measured as described above. Interleukin-8 (IL-8) was analyzed using porcine CXCL8/IL-8 DuoSet ELISA kit (DY535, R&D systems Abbingdon, UK) according to the manufacturer's protocol. […]

Data set [3] has as its system Caco-2 cells. The experiment in a line: Interleukin-8 production of DON-challenged Caco-2 cells (ELISA). To be noted: apical side, 24 h incubation with 4.2 µM DON, digests 1:100 added 2 hours before DON. It is filed as cell-based. How it is done: as §1
Caco-2 and IPEC-J2 cells were grown on inserts and in 12 well plates respectively. Confluent layers of cells were incubated with 1:100 dilutions of digests 2 hours prior to addition of DON. Cells were then incubated in the presence of both digests and DON for 24 hours prior to analysis. TEER was measured as described above. Interleukin-8 (IL-8) was analyzed using porcine CXCL8/IL-8 DuoSet ELISA kit (DY535, R&D systems Abbingdon, UK) according to the manufacturer's protocol. Apical an basolateral supernatant of transwell plates were used for analysis. Samples were diluted ten times in PBS. […]

The conditions of data set [4]: concentration of 4.2 µM, Akbari et al.; cited from earlier work.
For data set [5] the following is noted: 4.2 µM for 24 hours, Akbari et al.; cited from earlier work.
The subject of data set [6] is streptococci. The settings on record: among naturally present medium and long chain free fatty acids, Kabara et al. 1972; cited from earlier work.

SMILES strings stand for the structures.

For the molecule `CC1=C[C@H]2O[C@@H]3[C@H](O)C[C@](C)([C@@]2(CO)[C@H](O)C1=O)[C@]31CO1` [DON, Deoxynivalenol], the “cytotoxicity (MTT assay)” value in data set [1] is given as “not cytotoxic”. Besides, the “TEER decrease as compared to control” value in data set [2] is on record as 15%. Also, in data set [3], the IL8 production amounted to 121.7 pg/mL. Also, in data set [4], the direct cytotoxicity entry was “not cytotoxic”. The TEER reduction in data set [5] is given as roughly 80%.

As to `CCCCCCCCCCCC(=O)O` [lauric acid], the activity against streptococci result in data set [6] is reported as “among the most active free fatty acids”.

As to `CCCCCC/C=C\CCCCCCCC(=O)O` [palmitoleic acid], in data set [6], the activity against streptococci entry was “among the most active free fatty acids”.
